Source: PubChem BioAssay AID248 (DTP/NCI, 2004)
“And” between values parts separate entries of the source, which are not always exact repeats. Identical values can stand only once. Inconclusive results and toxic doses are left out. Rule as the data show it: active = T/C of 150% or more; inactive = T/C below 125%.

Tested on: L1210 leukemia ip in BDF1 mice, survival T/C
Test: NCI In Vivo Anticancer Drug Screen. Data for tumor model L1210 Leukemia (intraperitoneal) in B6D2F1 (BDF1) mice
Conditions: endpoint: mean survival time, higher = longer survival
Procedure, shortened: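 Value reflects the ratio of survival in compound-treated mice to survival in vehicle-treated controls, with both groups carrying the same transplanted tumor.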

[1] = dose: 100.0 mg/kg/injection, schedule: Q04DX003 (ip), vehicle: saline
[2] = dose: 200.0 mg/kg/injection, schedule: Q04DX003 (ip), vehicle: saline
[3] = dose: 400.0 mg/kg/injection, schedule: Q04DX003 (ip), vehicle: saline
[4] = dose: 12.5 mg/kg/injection, schedule: Q04DX003 (ip), vehicle: Klucel (hydroxypropylcellulose) (HPC)
[5] = dose: 25.0 mg/kg/injection, schedule: Q04DX003 (ip), vehicle: Klucel (hydroxypropylcellulose) (HPC)
[6] = dose: 50.0 mg/kg/injection, schedule: Q04DX003 (ip), vehicle: Klucel (hydroxypropylcellulose) (HPC)
[7] = dose: 100.0 mg/kg/injection, schedule: Q01DX009 (ip), vehicle: Klucel (hydroxypropylcellulose) (HPC)
[8] = dose: 100.0 mg/kg/injection, schedule: Q04DX003 (ip), vehicle: Klucel (hydroxypropylcellulose) (HPC)
[9] = dose: 200.0 mg/kg/injection, schedule: Q01DX009 (ip), vehicle: Klucel (hydroxypropylcellulose) (HPC)
[10] = dose: 200.0 mg/kg/injection, schedule: Q04DX003 (ip), vehicle: Klucel (hydroxypropylcellulose) (HPC)
[11] = dose: 400.0 mg/kg/injection, schedule: Q01DX009 (ip), vehicle: Klucel (hydroxypropylcellulose) (HPC)
[12] = dose: 400.0 mg/kg/injection, schedule: Q04DX003 (ip), vehicle: Klucel (hydroxypropylcellulose) (HPC)
[13] = dose: 100.0 mg/kg/injection, schedule: Q04DX002 (ip), vehicle: Klucel (hydroxypropylcellulose) (HPC)
[14] = dose: 200.0 mg/kg/injection, schedule: Q04DX002 (ip), vehicle: Klucel (hydroxypropylcellulose) (HPC)
[15] = dose: 100.0 mg/kg/injection, schedule: Q01DX001 (ip), vehicle: saline
[16] = dose: 100.0 mg/kg/injection, schedule: Q04DX003 (ip), vehicle: saline with Tween-80
[17] = dose: 400.0 mg/kg/injection, schedule: Q04DX003 (ip), vehicle: saline with Tween-80
[18] = dose: 100.0 mg/kg/injection, schedule: Q04DX002 (ip), vehicle: saline with Tween-80
[19] = dose: 200.0 mg/kg/injection, schedule: Q04DX002 (ip), vehicle: saline with Tween-80
[20] = dose: 400.0 mg/kg/injection, schedule: Q04DX002 (ip), vehicle: saline with Tween-80
[21] = dose: 100.0 mg/kg/injection, schedule: Q01DX001 (ip), vehicle: Klucel (hydroxypropylcellulose) (HPC)
[22] = dose: 200.0 mg/kg/injection, schedule: Q01DX001 (ip), vehicle: Klucel (hydroxypropylcellulose) (HPC)
[23] = dose: 25.0 mg/kg/injection, schedule: Q01DX009 (ip), vehicle: water
[24] = dose: 75.0 mg/kg/injection, schedule: Q01DX001 (ip), vehicle: saline
[25] = dose: 100.0 mg/kg/injection, schedule: Q01DX009 (ip), vehicle: saline with Tween-80
[26] = dose: 200.0 mg/kg/injection, schedule: Q01DX009 (ip), vehicle: saline with Tween-80
[27] = dose: 400.0 mg/kg/injection, schedule: Q01DX009 (ip), vehicle: saline with Tween-80
[28] = dose: 200.0 mg/kg/injection, schedule: Q01DX001 (ip), vehicle: saline

Measured: T/C

COC1OC2COC(c3ccccc3)OC2C(OC)C1OC(=O)c1ccccc1 (stereo unspecified)
inactive: [1] 93 % of control | [2] 91 % of control | [3] 98 % of control

[CH3][Sb]([CH3])[S]C1OC(CO)C(O)C(O)C1O (stereo unspecified)
inactive: [4] 99 % of control | [5] 89 % of control | [6] 95 % of control

OCC(O)C(O)C(O)C(O)C1SCCS1 (stereo unspecified)
inactive: [7] 88 % of control | [8] 98 % of control and 103 % of control and 93 % of control | [9] 89 % of control | [10] 103 % of control and 93 % of control | [11] 100 % of control | [12] 115 % of control and 88 % of control

O=C(OCc1ccccc1)Oc1ccc2ccccc2c1
inactive: [8] 102 % of control | [10] 95 % of control | [12] 95 % of control

CCCCNC(=O)Nc1cccc2ccccc12
inactive: [7] 96 % of control | [9] 96 % of control | [11] 97 % of control

c1ccc2c(c1)C1c3cccc[n+]3C2CC1n1c2ccccc2c2ccccc21 (stereo unspecified)
inactive: dose: 12.5 mg/kg/injection, schedule: Q01DX009 (ip), vehicle: Klucel (hydroxypropylcellulose) (HPC) 106 % of control | [4] 111 % of control | dose: 25.0 mg/kg/injection, schedule: Q01DX009 (ip), vehicle: Klucel (hydroxypropylcellulose) (HPC) 106 % of control | [5] 106 % of control | [6] 91 % of control | [7] 102 % of control | [1] 93 % of control | [9] 94 % of control | [2] 98 % of control | [11] 94 % of control | [3] 94 % of control

O/N=C1\CCc2ccccc21
inactive: dose: 50.0 mg/kg/injection, schedule: Q04DX002 (ip), vehicle: Klucel (hydroxypropylcellulose) (HPC) 100 % of control | [13] 92 % of control | [14] 96 % of control

CSC(N(C)c1ccccc1)=[N+](C)c1ccccc1
inactive: [15] 105 % of control

COC(=O)C(I)C(OC)c1ccccc1 (stereo unspecified)
inactive: [16] 98 % of control | dose: 200.0 mg/kg/injection, schedule: Q04DX003 (ip), vehicle: saline with Tween-80 96 % of control | [17] 95 % of control

Cc1ccc(C(=O)C(O)c2ccc(C)cc2)cc1 (stereo unspecified)
inactive: [7] 98 % of control | [9] 101 % of control | [11] 98 % of control

COc1ccc(NC(=S)Nc2ccccc2)cc1
inactive: [18] 101 % of control | [19] 108 % of control | [20] 108 % of control

C1CC2(C34CCC(CC3)C4)CCC1C2
inactive: dose: 50.0 mg/kg/injection, schedule: Q01DX001 (ip), vehicle: carboxymethylcellulose (CMC) 105 % of control | dose: 100.0 mg/kg/injection, schedule: Q01DX001 (ip), vehicle: carboxymethylcellulose (CMC) 96 % of control | dose: 200.0 mg/kg/injection, schedule: Q01DX001 (ip), vehicle: carboxymethylcellulose (CMC) 105 % of control | dose: 400.0 mg/kg/injection, schedule: Q01DX001 (ip), vehicle: carboxymethylcellulose (CMC) 88 % of control

CCC(CC)C(N)=O
inactive: [21] 100 % of control | [22] 102 % of control | dose: 400.0 mg/kg/injection, schedule: Q01DX001 (ip), vehicle: Klucel (hydroxypropylcellulose) (HPC) 107 % of control

Nc1nc(N)c2cc(N3CCCC3c3ccc(Cl)cc3)ccc2n1 (stereo unspecified)
inactive: [23] 87 % of control

CCCC(C)NCCOC(=O)c1ccc(N)cc1 (stereo unspecified)
inactive: [24] 95 % of control

C=CC1(C)CO1 (stereo unspecified)
inactive: [1] 93 % of control | [2] 112 % of control | [3] 96 % of control

O=C(c1ccccc1)N1CC1
inactive: [23] 95 % of control | dose: 50.0 mg/kg/injection, schedule: Q01DX009 (ip), vehicle: water 93 % of control | dose: 100.0 mg/kg/injection, schedule: Q01DX009 (ip), vehicle: water 86 % of control | dose: 200.0 mg/kg/injection, schedule: Q01DX009 (ip), vehicle: water 88 % of control | dose: 400.0 mg/kg/injection, schedule: Q01DX009 (ip), vehicle: water 90 % of control

CCOC(=O)C(C(=O)OCC)C1CCS(=O)(=O)C1 (stereo unspecified)
inactive: [25] 103 % of control | [26] 96 % of control | [27] 92 % of control

CCOC(=O)c1nc(N)nc(N)c1Oc1ccccc1
inactive: dose: 50.0 mg/kg/injection, schedule: Q01DX001 (ip), vehicle: Klucel (hydroxypropylcellulose) (HPC) 92 % of control | [21] 93 % of control | [22] 92 % of control

c1ccc(CN2C3CCCC2CC(c2ccccc2)C3)cc1 (stereo unspecified)
inactive: [13] 92 % of control | [14] 87 % of control

N=C(N)Sc1cccc[n+]1[O-]
inactive: [15] 105 % of control | [28] 111 % of control

COC(=O)C(CSCSC)NC(=O)/C=C/c1ccc(C)cc1 (stereo unspecified)
inactive: [25] 102 % of control | [16] 93 % of control | [26] 101 % of control | [27] 91 % of control | [17] 91 % of control

CCO/C=C1\SC(=S)N(c2ccco2)C1=O
inactive: dose: 100.0 mg/kg/injection, schedule: Q01DX009 (ip), vehicle: saline sonified 98 % of control | dose: 200.0 mg/kg/injection, schedule: Q01DX009 (ip), vehicle: saline sonified 103 % of control | dose: 400.0 mg/kg/injection, schedule: Q01DX009 (ip), vehicle: saline sonified 92 % of control

N#CC(C(=O)c1ccccc1)=C([SH2+])[SH2+].N#CC(C(=O)c1ccccc1)=C([SH2+])[SH2+].[Cu+2].c1ccc([AsH](c2ccccc2)(c2ccccc2)c2ccccc2)cc1
inactive: [15] 103 % of control | [1] 100 % of control | [28] 105 % of control | [2] 96 % of control | dose: 400.0 mg/kg/injection, schedule: Q01DX001 (ip), vehicle: saline 98 % of control | [3] 98 % of control

C[n+]1ccc(/C=C/c2ccc(O)c3ccccc23)cc1
inactive: [24] 100 % of control | dose: 150.0 mg/kg/injection, schedule: Q01DX001 (ip), vehicle: saline 101 % of control

C/C=C/c1ccc(O)c(OC)c1
inactive: [18] 92 % of control | [19] 86 % of control | [20] 86 % of control

COC(=O)c1cc(=O)c2c(=O)[nH]c(=O)[nH]c2[nH]1
inactive: [8] 101 % of control | [10] 95 % of control | [12] 100 % of control
